Patent publication US20220016241A1, “COMPOSITIONS AND METHODS FOR REDUCING ANTIGEN-SPECIFIC IMMUNOGENICITY” (The Research Foundation for The State University of New York, priority 2013, published 2022)

Test system: anti-FVIII titers
Assay: Tolerance induction and FVIII re-challenge study (FVIII, FVIII plus OPLS, FVIII plus Dexamethasone)
Format: in vivo, HA mice
Settings: co-administered sc with 1 μg FVIII, 4 weekly
Procedure: Tolerance induction studies in HA mice: Breeding pairs of exon 16 knockout transgenic hemophilic mice (HA) were used. All animal studies were conducted in accordance with an approved protocol by the Institutional Animal Use and Care Committee at the University at Buffalo, State University of New York.
Immunization and re-challenge schedule: To delineate whether OPLS mediated reduction of antibody titer is due to immune tolerance or immune suppression, we performed re-challenge experiments. Forty HA mice were pre-treated with FVIII, FVIII plus OPLS or FVIII plus Dexamethasone once-a-week for four consecutive weeks by sc injections of endotoxin free formulation of 1 μg of FVIII alone or with 5 mg OPLS or 200 ng Dexamethasone (Dex) as shown in FIG. 32. The injections were prepared in TRIS buffers containing 25 mM TRIS and 150 mM NaCl at pH 7.5. For OPLS containing formulations, OPLS was added to the buffer and the pH adjusted to 7.5. The appropriate amount of FVIII was added immediately before injection to prevent complexation between FVIII and OPLS pre-injection. […] Total anti-FVIII titer levels were measured by ELISA.
Statistics: Non-parametric one-way ANOVA with Tukey's post hoc analysis was used for the analysis of titer values where appropriate. Student t-test was used for comparing mean intensity of fluorescence (MIF) for flow cytomerty data. […]

In the case of `N[C@@H](COP(=O)(O)O)C(=O)O` [OPLS, O-Phospho-L-Serine], the “Anti-FVIII antibody response during the pre-treatment stage” value is reported as “reduced”.
